Test results reported in patent publication US20090074867A1, “ORALLY DISPERSIBLE PHARMACEUTICAL COMPOSITION AND PROCESS FOR THE PREPARATION THEREOF” (priority 2004, published 2009).

Assay: Dissolution / microcapsule releasing test in phosphate buffer pH 7.2, 100 rpm, UV spectrophotometer
Type: physicochemical
Protocol: The test was carried out in phosphate buffer at pH 7.2 (obtained by dissolving 6.8 g of KH2 PO4 and 1.4 g of NaOH in 1 litre of demineralised water) at 100 rpm for the microcapsule dissolution test and 50 rpm for the tablet dissolution test according to the method described in European Pharmacopoeia, Ed. 4.4 of the April 2003. • dissolution in phosphate buffer at pH 7.2 (obtained by dissolving 6.8 g of KH2PO4 and 1.4 g of NaOH in 1 litre of demineralised water) at 100 rpm; the average of 5 tests has given the following results: • 30.1% after 5 minutes, 58.6% after 10 minutes, 71.0% after 15 minutes, 78.8% after 20 minutes, 86.9% after 30 minutes, • palatability: the palatability test was carried out as indicated above administering 200 mg of Ibuprofen BP 80 to each individual. […] The microcapsules obtained in Examples 1 to 3 (MC1, MC2 and MC3) were subjected to the releasing test in phosphate buffer by means of a UV spectrophotometer. In order to assist comparison the results obtained on AI as such in the same test are shown in the bottom line (see previous Experimental Part).

CC(C)Cc1ccc(C(C)C(=O)O)cc1 (centres unmarked) [Ibuprofen BP 80, Ibuprofen]
AI released, 0 min (0 min): 0% | AI released, 5 min: 30.1% | AI released, 5 min (listed as AI): 30.10% | AI released, 10 min: 58.6% | AI released, 10 min (listed as AI): 58.60% | AI released, 15 min: 71.0% | AI released, 15 min (listed as AI): 71.00% | AI released, 20 min: 78.8% | AI released, 20 min (listed as AI): 78.80% | AI released, 30 min: 86.9% | AI released, 30 min (listed as AI): 86.90%
